Test system: human myeloma cell line MM.1S
Assay: SILAC acetylated-lysine peptide profiling, HDAC inhibitor vs DMSO (light/heavy ratio)
Type: cell-based
Description: An embodiment of the invention comprises utilizing the SILAC method in order to quantitate changes in protein expression between two or more populations of cells. The SILAC method is a technique based on mass spectrometry that detects differences in protein abundance among samples using non-radioactive isotopic labeling. The SILAC method is known in the art, and described in detail in Ong et al., “Stable Isotope Labeling by Amino Acids in Cell Culture, SILAC, as a Simple and Accurate Approach to Expression Proteomics”, Molecular & Cellular Proteomics, vol. 1, pp. 376-386 (2002), which is incorporated herein by reference in its entirety.
Briefly, the SILAC method involves growing two populations of cells in cell culture. The first population of cells is grown in growth media containing normal amino acids (“normal media”). The second population of cells is grown in media lacking a standard essential amino acid (such as lysine), but is then supplemented with a non-radioactive, isotopically labeled form of that essential amino acid (such as lysine labeled with ^13C atoms, rather than normal ^12C atoms), which is called “heavy media”. When the two populations of cells are each growing in the medium, they incorporate the amino acids into all of their proteins. The growth of cells maintained in the heavy media is no different from that in normal media. All peptides containing the heavy amino acids are heavier than their normal counterparts. The cells from each of the two populations of cells are lysed. The lysates from each of the two cell populations are then combined. The combined cell lysates are then analyzed by mass spectrometry. Pairs of chemically identical peptides of different stable isotope composition can be differentiated in a mass spectrometer due to their difference in mass. The ratio of peak intensities in the mass spectrum for such peptide pairs reflects the abundance ratio for the two proteins.
This example describes SILAC studies that were performed to compare the effects of three different HDAC inhibitors (Compound A, Compound B, and tubastatin A) to a control on a human multiple myeloma cell line. The HDAC inhibitors were also compared amongst themselves to determine differences in their effects.
A human myeloma cell line MM.1S was grown using either ^12C (light) or ^13C (heavy) lysine containing culture medium. The “heavy” cells were treated with DMSO as the control, and the “light” cells were treated with a single HDAC inhibitor at 37° C. for 6 hours. The heavy and light cells were lysed, and the lysates were mixed in 1:1 ratio and digested with the protease trypsin. The acetylated lysine containing peptides (due to the action of the HDAC inhibitor) in the digested peptide pool were captured by a non-specific anti-acetylated lysine antibody cocktail (the antibodies identify both light and heavy acetylated peptides), and subjected to mass spectrometry analysis in order to identify thousands of individual peptides.
Thousands of peptides were identified in pairs (^12C and ^13C) due to their known mass differences. The amino acid sequence and quantitative ratio (Light/Heavy) of a given peptide in two differentially treated cell lysates were then determined and annotated with their possible protein (gene) sources.
As stated above, three HDAC inhibitors (Compound A, Compound B, and Tubastatin A) were used. Thus, the SILAC method was performed three times, with a different HDAC inhibitor compared to a control each time. Accordingly, there are three pairs of quantitative data in the table below, i.e., Compound A:DMSO, Compound B:DMSO, and Tubastatin A:DMSO. A cut-off of 1.30 fold of change (increase or decrease) was then used to determine “changed” or “+” in the table, and any peptides with a fold of change less than 1.3 fold were determined to be “unchanged” or “0” in the table. Those peptides that were not identified were marked as “NA” in the table. […]

O=C(CCCCCCNC(=O)c1cnc(N(c2ccccc2)c2ccccc2)nc1)NO [Compound A, 2-(diphenylamino)-N-(7-(hydroxyamino)-7-oxoheptyl)pyrimidine-5-carboxamide]
L/H ratio of acetylated peptide DWVLNEFK(ac)HGK (SEQ ID NO: 33) (DDX5 [388], log 2 scale, drug vs DMSO): 0.00 | L/H ratio of acetylated peptide FEK(ac)[…] (SEQ ID NO: 32) (DDX17 [132], log 2 scale, drug vs DMSO): 0.00 | L/H ratio of acetylated peptide ELNK(ac)ILEGR (SEQ ID NO: 2) (DLAT [466], log 2 scale, drug vs DMSO): 0.00 | light to heavy ratio (L/H ratio) of acetylated peptide SQFLK(ac)YIEK (SEQ ID NO: 524) (DNA replication licensing factor MCM2 [534], gene MCM2, inhibitor:DMSO): −0.46 log 2 | light to heavy ratio (L/H ratio) of acetylated peptide TFEK(ac)SMMNLQTK (SEQ ID NO: 354) (DNA topoisomerase 1 [642], TOP1, drug:DMSO): 0.00 log 2 | L/H ratio of acetylated peptide VVK(ac)HPIFER (SEQ ID NO: 35) (DNAJB11 [247], log 2 scale, drug vs DMSO): 0.00 | L/H ratio of acetylated peptide (DVTLQK(ac)QCVPFR (SEQ ID NO: 486), 60S ribosomal protein L17 [55], RPL17): 0.71 log 2 | light to heavy ratio (L/H ratio) of acetylated peptide LNLDK(ac)MMEQK (SEQ ID NO: 603) (Dihydrolipoyl dehydrogenase mitochondrial [122], gene DLD, inhibitor:DMSO): 0.46 log 2 | light to heavy ratio (L/H ratio) of acetylated peptide DTYIENEK(ac)LISGK (SEQ ID NO: 352) (Dolichyl-diphosphooligosaccharide--protein glycosyltransferase subunit 1 precursor [626], RPN1, drug:DMSO): 0.00 log 2 | light to heavy ratio (L/H ratio) of acetylated peptide YNIEK(ac)DIAAHIK (SEQ ID NO: 553) (Dynein light chain 1 cytoplasmic [36], gene DYNLL1, inhibitor:DMSO): 0.40 log 2 | light to heavy ratio (L/H ratio) of acetylated peptide YNIEK(ac)DIAAYIK (SEQ ID NO: 331) (Dynein light chain 2 cytoplasmic [36], DYNLL2, drug:DMSO): 0.00 log 2 | L/H ratio of acetylated peptide (EHLLK(ac)YEYQPFAGK (SEQ ID NO: 482), Isoform 1 of WD repeat-containing protein 1 [95], WDR1): 0.47 log 2 | L/H ratio of acetylated peptide TSK(ac)NK(ac)SSLSR (SEQ ID NO: 14) (EP300 [1558:1560], log 2 scale, drug vs DMSO): 1.00 | light to heavy ratio (L/H ratio) of acetylated peptide YLAEK(ac)YEWDVAEAR (SEQ ID NO: 332) (Elongation factor 2 [638], EEF2, drug:DMSO): 0.00 log 2 | light to heavy ratio (L/H ratio) of acetylated peptide TFK(ac)GVVDVVMK (SEQ ID NO: 550) (Elongation factor G 2 mitochondrial precursor [265], gene GFM2, inhibitor:DMSO): 0.39 log 2 | light to heavy ratio (L/H ratio) of acetylated peptide KSDYIK(ac)LYVR (SEQ ID NO: 315) (Endoplasmin [410], HSP90B1, drug:DMSO): 1.00 log 2 | light to heavy ratio (L/H ratio) of acetylated peptide EK(ac)[…] (SEQ ID NO: 314) (Endoplasmin[ 142], HSP90B1, drug:DMSO): 1.00 log 2 | light to heavy ratio (L/H ratio) of acetylated peptide EVEEDEYK(ac)AFYK (SEQ ID NO: 261) (Endoplasmin[ 356], HSP90B1, drug:DMSO): 0.41 log 2 | light to heavy ratio (L/H ratio) of acetylated peptide K(ac)EELTLEGIR (SEQ ID NO: 510) (Eukaryotic initiation factor 4A-I [238], gene EIF4A1, inhibitor:DMSO): −0.60 log 2 | light to heavy ratio (L/H ratio) of acetylated peptide LMCK(ac)PIFSK (SEQ ID NO: 335) (Eukaryotic translation initiation factor 2 subunit 3 [312], EIF2S3, drug:DMSO): 0.00 log 2 | light to heavy ratio (L/H ratio) of acetylated peptide SHLAK(ac)EGLYQYK (SEQ ID NO: 533) (Eukaryotic translation initiation factor 3 subunit A [68], gene EIF3A, inhibitor:DMSO): −0.41 log 2 | L/H ratio of acetylated peptide (FGIAAK(ac)[…] (SEQ ID NO: 479), Isoform 2 of Voltage-dependent anion-selective channel protein 2 [224], VDAC2): −0.40 log 2 | light to heavy ratio (L/H ratio) of acetylated peptide, log 2 scale (FPHSAHQK(ac)YVR (SEQ ID NO: 253), Ribosomal protein L14 variant [71], RPL14): −0.39 | L/H ratio of acetylated peptide (FVATGHGK(ac)YEK (SEQ ID NO: 487), Lymphocyte-specific protein 1 [327], LOC100133284, LSP1): 0.75 log 2 | light to heavy ratio (L/H ratio) of acetylated peptide AVDLIQK(ac)HK (SEQ ID NO: 546) (Flap endonuclease 1 [252], gene FEN1, inhibitor:DMSO): 0.39 log 2 | light to heavy ratio (L/H ratio), log 2 scale, acetylated peptide GGVVGIK(ac)VDK (SEQ ID NO: 774) (Fructose-bisphosphate aldolase A [108], gene ALDOA, drug:DMSO): 1.00 | L/H ratio of acetylated peptide TCEESSFCK(ac)R (SEQ ID NO: 36) (GANAB [48], log 2 scale, drug vs DMSO): 0.00 | L/H ratio of acetylated peptide ASGLAAGK(ac)GVIVAK (SEQ ID NO: 37) (GART [156], log 2 scale, drug vs DMSO): 0.00 | L/H ratio of acetylated peptide LVK(ac)VWNLANCK (SEQ ID NO: 39) (GNB2L1 [175], log 2 scale, drug vs DMSO): 0.00 | L/H ratio of acetylated peptide IIVDELK(ac)QEVISTSSK (SEQ ID NO: 38) (GNB2L1 [271], log 2 scale, drug vs DMSO): 0.00 | L/H ratio of acetylated peptide (GSK(ac)K(ac)AVTK (SEQ ID NO: 490), Histone H2B type 2-E [16:17], HIST2H2BE): 1.00 log 2 | L/H ratio of acetylated peptide (ac)AHYNFK(ac)K (SEQ ID NO: 40) (GTPBP4 [7], log 2 scale, drug vs DMSO): 0.00 | L/H ratio of acetylated peptide (GVHPK(ac)FPEGGK (SEQ ID NO: 483), NADH-cytochrome b5 reductase 1 [124], CYB5R1): 0.48 log 2 | light to heavy ratio (L/H ratio) of acetylated peptide (ac)[…](ac)PGECLR (SEQ ID NO: 575) (Galectin-1 [13], gene LGALS1, inhibitor:DMSO): 0.42 log 2 | light to heavy ratio (L/H ratio) of acetylated peptide ISGASEK(ac)[…] (SEQ ID NO: 543) (Glutamate dehydrogenase 1 mitochondrial [503], gene GLUD1, inhibitor:DMSO): 0.39 log 2 | light to heavy ratio (L/H ratio) of acetylated peptide […](ac)YDNSLK (SEQ ID NO: 620) (Glyceraldehyde-3-phosphate dehydrogenase [139], gene GAPDH, inhibitor:DMSO): 0.48 log 2

From patent US20140357512A1, “HISTONE DEACETYLASE (HDAC) BIOMARKERS IN MULTIPLE MYELOMA” (priority 2013, published 2014)
